“And” between values parts separate entries of the source, which are not always exact repeats. Identical values can stand only once. ± gives the expanded uncertainty stated by the source.
What was measured:
[1] = for mass density: 101.33 kPa, Liquid; for Triple point temperature: Crystal
[2] = Molar enthalpy of transition or fusion; settings: Crystal
[3] = molar heat capacity at constant pressure; settings: 101.33 kPa, Liquid, Small sample (50 mg) DSC

SMILES	mass density ([1]; 283.15 K)	mass density ([1]; 288.15 K)	mass density ([1]; 293.15 K)	mass density ([1]; 298.15 K)	mass density ([1]; 303.15 K)	mass density ([1]; 308.15 K)	mass density ([1]; 313.15 K)	mass density ([1]; 318.15 K)	mass density ([1]; 323.15 K)	Triple point temperature [1]	molar heat capacity at constant pressure ([3]; 283.15 K)	molar heat capacity at constant pressure ([3]; 288.15 K)	molar heat capacity at constant pressure ([3]; 293.15 K)	molar heat capacity at constant pressure ([3]; 298.15 K)	molar heat capacity at constant pressure ([3]; 303.15 K)	molar heat capacity at constant pressure ([3]; 308.15 K)	molar heat capacity at constant pressure ([3]; 313.15 K)	molar heat capacity at constant pressure ([3]; 318.15 K)	molar heat capacity at constant pressure ([3]; 323.15 K)	also measured
CCCCn1cc[n+](C)c1.F[P-](F)(F)(F)(F)F [1-butyl-3-methylimidazolium hexafluorophosphate]	1379.14 ± 1.5 kg/m3	1374.83 ± 1.4 kg/m3	1370.43 ± 1.4 kg/m3	1366.12 ± 1.4 kg/m3	1361.76 ± 1.4 kg/m3	1357.52 ± 1.4 kg/m3	1353.35 ± 1.4 kg/m3	1349.16 ± 1.4 kg/m3	1345.02 ± 1.4 kg/m3	280.03 ± 0.77 K	400.9 ± 6.2 J/K/mol	402.32 ± 6.2 J/K/mol	404.97 ± 6.3 J/K/mol	407.66 ± 6.3 J/K/mol	410.33 ± 6.4 J/K/mol	413.14 ± 6.4 J/K/mol	415.98 ± 6.4 J/K/mol	418.91 ± 6.5 J/K/mol	421.88 ± 6.5 J/K/mol	Molar enthalpy of transition or fusion ([2]; DSC): 4.76 ± 0.139 kcal/mol
CCCC[n+]1ccn(C)c1.O=S(=O)([N-]S(=O)(=O)C(F)(F)F)C(F)(F)F	1450.16 ± 1.7 kg/m3 and 1448.52 ± 1.7 kg/m3	1445.33 ± 1.7 kg/m3 and 1443.69 ± 1.7 kg/m3	1440.51 ± 1.7 kg/m3 and 1438.89 ± 1.6 kg/m3	1435.73 ± 1.7 kg/m3 and 1434.1 ± 1.6 kg/m3	1430.94 ± 1.7 kg/m3 and 1429.31 ± 1.6 kg/m3	1426.17 ± 1.6 kg/m3 and 1424.54 ± 1.6 kg/m3	1421.4 ± 1.6 kg/m3 and 1419.78 ± 1.6 kg/m3	1416.66 ± 1.6 kg/m3 and 1415.04 ± 1.6 kg/m3	1411.94 ± 1.6 kg/m3 and 1410.31 ± 1.6 kg/m3	268.51 ± 0.77 K and 267.61 ± 0.77 K	558.99 ± 8.7 J/K/mol and 559.63 ± 8.7 J/K/mol	561.29 ± 8.7 J/K/mol and 562.05 ± 8.7 J/K/mol	564.02 ± 8.7 J/K/mol and 564.58 ± 8.8 J/K/mol	566.47 ± 8.8 J/K/mol and 567.33 ± 8.8 J/K/mol	569.01 ± 8.8 J/K/mol and 569.74 ± 8.8 J/K/mol	572.11 ± 8.9 J/K/mol and 572.82 ± 8.9 J/K/mol	575.03 ± 8.9 J/K/mol and 575.56 ± 8.9 J/K/mol	577.84 ± 8.9 J/K/mol and 578.49 ± 9 J/K/mol	581.06 ± 9 J/K/mol and 581.68 ± 9 J/K/mol	mass density ([1]; 278.15 K): 1454.98 ± 1.7 kg/m3 and 1453.33 ± 1.7 kg/m3; mass density ([1]; 328.15 K): 1407.23 ± 1.6 kg/m3 and 1405.6 ± 1.6 kg/m3; mass density ([1]; 333.15 K): 1402.55 ± 1.6 kg/m3 and 1400.92 ± 1.5 kg/m3; Molar enthalpy of transition or fusion [2]: 5.36 kcal/mol and 5.86 kcal/mol; molar heat capacity at constant pressure ([3]; 328.15 K): 584.36 ± 9.1 J/K/mol and 584.82 ± 9.1 J/K/mol
